Earlier results on 4 molecules are cited in PMC10949855 (Journal of veterinary pharmacology and therapeutics, 2022).

For the data set the following is noted: oral, dogs; ref KuKanich & KuKanich 2015; Matsui et al 1995; cited from earlier work.

In the case of `O=C(N[C@H](CO)[C@H](O)c1ccc([N+](=O)[O-])cc1)C(Cl)Cl` [chloramphenicol], the TMAX was 1.3 h.

Take `CN/C(=N/CCSCc1nc[nH]c1C)NC#N` [cimetidine]: the TMAX is 1.8 h.

Regarding `CN(C)CCCC1(c2ccc(F)cc2)OCc2cc(C#N)ccc21` (stereo not shown) [citalopram], the TMAX was 1 h.

Take `CC(=O)N1CCN(c2ccc(OCC3COC(Cn4ccnc4)(c4ccc(Cl)cc4Cl)O3)cc2)CC1` (stereo not shown) [ketoconazole]: the TMAX is 2 h.
